PMC9879403, “Oncolytic strategy using new bifunctional HDACs/BRD4 inhibitors against virus-associated lymphomas” (PLOS Pathogens, 2023)

Key:
BC-1 = test: WST-1 cytotoxicity assay, BC-1 (KSHV+ PEL); type: cell-based; conditions: Homo sapiens, BC1, 72 h, read-out: KSHV-infected lymphomas CC50, BC-1
Source text: (§1) Fig 2 Identification of newly synthesized dual inhibitors with anti-PEL activities. (A) The binding mode of (+)-JQ1 with BRD4^BD1 (PDB: 3MXF). BRD4^BD1 is shown as hot pink cartoon with gray surface. Asn140 in BRD4^BD1 is shown as sticks and colored in following pattern: atom C hot pink, atom N dark blue, and atom O yellow. (+)-JQ1 is shown as sticks and colored in following patten: atom C hot pink, atom N dark blue, atom O yellow, atom S golden, and atom Cl green. The solvent exposed region (SEG) of (+)-JQ1 are indicated with white arrow. (B) The binding modes of SAHA and entinostat with HDAC2 (PDB: 3MAX). HDAC2 is shown as blue cartoon with gray surface. Asp181 and His183 in HDAC2 are shown as sticks and colored in following pattern: atom C blue, atom N dark blue, and atom O yellow. The catalytic zinc ion in the active site of HDAC2 is shown as black sphere. SAHA is shown as sticks and colored in following pattern: atom C green, atom N dark blue, and atom O yellow. Entinostat is shown as sticks and colored in following pattern: atom C hot pink, atom N dark blue, and atom O yellow. The SEG of SAHA or entinostat is indicated with white arrow. Hydrogen bonds (H-bonds) are presented by red dash lines. (C) The HDACs/BRD4 dual inhibitors 002-011 were designed by fusing the key pharmacophores of (+)-JQ1 (pink) and HDAC inhibitors (blue), SAHA or entinostat, via various chemical linkers (green). (D) Anti-PEL activities of the new compounds. Five KSHV positive and two KSHV negative lymphoma cell lines were treated with indicated concentrations of these compounds for 72 h. Then the cytotoxicity was determined using the WST-1 assay. (+)-JQ1, SAHA and entinostat were used for the comparisons as single inhibitors. The CC50 for each compound was calculated using GraphPad Prism 5.0 software. Error bars represent S.D. for 3 independent experiments.
(§2) Fig 4 Identification of anti-PEL activities for compound 009 stereoisomers. (A) The chemical structures of anti-HDACs/BRD4 bifunctional molecules 009P1 and 009P2, as well as anti-HDACs or anti-BRD4 mono-functional molecules 009N1, 009N2, 009N3, and 009N4. (B-C) Four KSHV+ PEL cell lines were treated with indicated concentrations of 009P1, 009P2 or 009N1-N4 for 72 h, then the cytotoxicity was determined using the WST-1 assay. (D-I) BCBL-1 cells were treated with these compounds at the respective 2× CC50 for 24 h, then cell cycle (D-F) and apoptosis (G-I) were measured by flow cytometry analysis. Error bars represent S.D. for 3 independent experiments, ** = p<0.01 (vs vehicle control).
(§3) The cell viability following treatment with compounds was assessed by the WST-1 assay (Roche, Indianapolis, Indiana, USA) according to the manufacturer’s protocol as described previously. The absorbance signal was measured using a microplate reader (Biotek Synergy 2). The 50% cytotoxic concentration (CC50) for each compound was calculated from these dose-response curves using the software GraphPad Prism v5.0. Data were normalized as the fold change compared to the DMSO control.

BJAB.219 = test: WST-1 cytotoxicity assay, BJAB.219 (KSHV-infected lymphoma); type: cell-based; conditions: 72 h, read-out: KSHV-infected lymphomas CC50, BJAB.219
Source text: as §1
BCBL-1 and iSLK.219 cells were kindly provided by Dr. Pinghui Feng (University of Southern California). BL-41, BJAB, BCP-1, BC-1, BC-3, JSC-1, HUVEC cells were purchased from American Type Culture Collection (ATCC), and cultured as recommended by the manufacturer. For making BJAB.219 cells, BJAB cells were infected with rKSHV.219 stock by spinoculation as previously reported by centrifugation at 1500×g for 60 min [31]. Then, puromycin (10 μg/ml) was added into the medium at 72 h post-infection and the medium containing puromycin was replaced twice a week. After 6-week high concentration of puromycin selection, BJAB.219 cells were then cultured in the medium with 0.5 μg/ml puromycin.
The cell viability following treatment with compounds was assessed by the WST-1 assay (Roche, Indianapolis, Indiana, USA) according to the manufacturer’s protocol as described previously. The absorbance signal was measured using a microplate reader (Biotek Synergy 2). […]

JSC-1 = test: WST-1 cytotoxicity assay, JSC-1 (KSHV+ PEL); type: cell-based; conditions: 72 h, read-out: KSHV-infected lymphomas CC50, JSC-1
Source text: as §1, §2, §3

[1] = WST-1 cytotoxicity assay, BJAB (KSHV negative lymphoma); type: cell-based; conditions: human
Source text: as §1, §3

BCBL-1 = test: WST-1 cytotoxicity assay, BCBL-1 (KSHV+ PEL); type: cell-based; conditions: BCBL1, 72 h, read-out: KSHV-infected lymphomas CC50, BCBL-1
Source text: as §1, §2, §3

BCP-1 = test: WST-1 cytotoxicity assay, BCP-1 (KSHV+ PEL); type: cell-based; conditions: BCP-1, 72 h, read-out: KSHV-infected lymphomas CC50, BCP-1
Source text: as §1, §2, §3

[2] = WST-1 cytotoxicity assay, BL-41 (KSHV negative lymphoma); type: cell-based; conditions: human
Source text: as §1, §3

KSHV = type: cell-based, human

Cc1sc2c(c1C)C(c1ccc(Cl)cc1)=N[C@@H](CC(=O)OC(C)c1ccc(C(=O)Nc3ccccc3N)cc1)c1nnc(C)n1-2 (stereo partly drawn) [compound 009, 1-(4-((2-aminophenyl)carbamoyl)phenyl)ethyl 2-((S)-4-(4-chlorophenyl)-2,3,9-trimethyl-6H-thieno[3,2-f][1,2,4]triazolo[4,3-a][1,4]diazepin-6-yl)acetate]
CC50 (BC-1): 96 nM
CC50 (BJAB.219): 230 nM
CC50 (JSC-1): 84 nM
CC50 at 72 h [1]: 1320 nM
CC50 (BCBL-1): 20 nM
CC50 (BCP-1): 120 nM
CC50 at 72 h [2]: 3370 nM
Expression of lytic genes RTA, PF and ORF26 (KSHV): elevated
